Consider two substances from patent US12344879B2, “Transgenic bacteria with expanded amino acid usage and nucleic acid molecules for use in the same” (BOARD OF REGENTS, THE UNIVERSITY OF TEXAS SYSTEM, priority 2015, dated 2025).

Series [1] concerns NMC-A β-lactamase reporter (C69X). As to the kind of experiment: NMC-A β-lactamase reporter assay (ampicillin resistance by amber suppression with selenocysteine). To be noted: DHΔabc; for ampicillin concentration supporting growth (β-lactamase activity): NMC-A C69X reporter, co-expressed with SelA. In kind it is cell-based, E. coli DHΔabc. The text has this: A method of genetic selection capable of discriminating different levels of selenocysteine incorporation was developed. To specifically ‘addict’ a reporter protein to selenocysteine rather than serine, the NMC-A β-lactamase from Enterobacter cloacae was used. […] Then cysteine 69 was replaced with an amber stop codon (X69; FIG. 1a) for library selection, hypothesizing that the incorporation of selenocysteine and the formation of a selenyl-sulfhydryl bond would restore activity. (Swardn et al., 1998)
To eliminate any crosstalk between the tRNA^Sec library and the endogenous selenocysteine incorporation machinery, the selA, selB and selC genes (encoding SelA, SelB and tRNA^Sec respectively) were deleted from E. coli DH10B (designated DHΔabc). Cells containing the reporter plasmid pNMC-A C69X and the accessory plasmid pRSF-eSelA (expressing SelA) were transformed with plasmid pMB1-ZU containing the tRNA^Sec antideterminant library. Transformants were plated on media containing a gradient of ampicillin concentrations for selection of mutants capable of selenocysteine-specific suppression. The single colonies that arose covered a range of ampicillin concentrations. […] Of these tRNA^Sec variants, only G7-C66:U49-G65:C50-U64 was detected at the two highest ampicillin concentration (200 and 250 μg·ml^−1).
The tRNA^Sec antideterminant library was generated by enzymatic inverse PCR using oligonucleotide primers (Table 2) to randomize the six positions identified as the main antideterminant for EF-Tu binding. Following self ligation for 16 hours, DNA was ethanol precipitated with GlycoBlue (Ambion) and transformed by electroporation into E. coli DHΔabc containing the plasmids pNMC-A C69X and pRSF-eSelA. Transformants were diluted in 200 ml LB medium containing 12.5 μg·mL^−1 Zeocin, 6.25 μg·mL^−1 tetracycline and 25 μg·mL^−1 kanamycin and incubated overnight. Following overnight growth, cells were diluted 1/50 in LB medium containing 6.25 μg·mL^−1 Zeocin, 3.75 μg·mL^−1 tetracycline, 12.5 μg·mL^−1 kanamycin, 1 μM Na2SeO3 and 20 μg·mL^−1 L-cysteine and incubated for one hour. A series of 250 μl aliquots of cells were plated on LB agar containing 6.25 μg·mL^−1 Zeocin, 3.75 μg·mL^−1 tetracycline, 12.5 […], 1 μM Na2SeO3 and 20 μg·mL^−1 L-cysteine and 50-300 μg·mL^−1 ampicillin in 50 μg·mL^−1 increments. After 20 hours at 37° C. individual colonies were observed on plates containing 50-200 μg·mL^−1 ampicillin. Plasmid DNA was isolated from a selection of colonies from all plates and tRNA^Sec mutations determined by Sanger sequencing.
NotI/NcoI fragments containing tRNA^SecUx were subcloned into pRSF-eSelA to generate pRSF-UX-eSelA. pRSF-U-eSelA variants described in Table 1 were transformed into E. coli DHΔabc containing the reporter plasmid pNMC-A C69TAG. DHΔabc cells containing pNMC-A and pRSFDuet-1 were used as a positive control. DHΔabc cells harboring pNMC-A C69S and pRSF-UX-eSelA, and pNMC-A C69TAG and pRSF-UX-ΔSelA were used as controls for selenocysteine dependent β-lactamase activity. Transformants were cultured overnight in LB medium containing 6.25 μg·mL^−1 tetracycline, 25 μg·mL^−1 kanamycin, 1 μM Na2SeO3 and 20 […]. Following overnight growth, cells were diluted 1/10 in LB medium containing antibiotics, selenite and L-cysteine and incubated for three hours. […]
Background: A reporter such as luciferase makes a cellular process visible.

Series [2] relates to NMC-A β-lactamase reporter (C69X C238X). The series is described as follows: NMC-A β-lactamase reporter assay in strain lacking release factor 1. In kind it is cell-based, E. coli RTΔA. As to conditions: RF1-deficient background, two amber codons.
The subject of series [3] is Pseudomonas aeruginosa azurin position 112. The series is described as follows: Selenocysteine incorporation into azurin C112X by intact mass spectrometry. To be noted: peak areas of the mass spectrum. Set-up: species or system E. coli RTΔA.2. The procedure:
RTΔA.2 transformants containing pAz-C112X-AU and pRSF-eSelAK were cultured as described previously with the exception that 20 μM Na2SeO3 was added for the 24 hour incubation. Cells were harvested by centrifugation and the periplasmic fraction isolated. Briefly, cell pellets were resuspended in 50 mL of 100 mM Tris and 0.75 M sucrose at pH 7.5. Following addition of lysozyme to 1 mg·mL^−1 and protease inhibitor cocktail cells were gently agitated for 20 min at 4° C. 50 mL of 1 mM EDTA was added and samples incubated again for 20 minutes. EDTA was neutralized by addition of 3.5 mL 0.5M MgCl2 during a further 20 min incubation. Spheroblasts were removed by centrifugation at 35000×g for 30 min, the periplasmic fraction passed through a 0.2 µm filter and mixed with imidazole stock solution to a final concentration of 20 mM. Seleno-azurin was recovered by IMAC using Ni-NTA resin and gravity flow columns. Eluate was concentrated and dialyzed against 50 mM NH4Ac pH 6.5 prior to the isolation of seleno-azurin by size exclusion FPLC. […]
Intact protein samples were analyzed using methods described previously (Ellefson et al., 2014). […] UVPD mass spectra were also deconvoluted using Xtract and then analyzed using ProsightPC 3.0. […] Incorporation efficiencies were calculated by dividing the area of the modified protein peak by the summed areas of the unmodified protein peak and the modified protein peak. […]

Several values for one entry are separate records, joined by “and”; a condition that tells them apart may be missing. Equal values may be shown once.

As to “tRNA^SecUx: Evolved E. coli tRNA^Sec variant with the G7-C66:U49-G65:C50-U64 antideterminant sequence and CUA anticodon”, in series [1], the “ampicillin concentration supporting growth (β-lactamase activity)” value is recorded as “up to 400 μg·ml^−1”. Also, the “ampicillin concentration at which the tRNA variant was detected in library selection” value in series [1] (antideterminant library, pNMC-A C69X, pRSF-eSelA) was 200 µg/mL and 250 µg/mL. Further, the “formation of functional diselenide bond (U69 and U238) in NMC-A” value in series [2] is listed as “could now support the formation of a functional diselenide bond”. Further, the “selenocysteine incorporation efficiency in azurin” value in series [3] is recorded as “greater than 76%”.
In the case of “tRNA^UTu (GGAAGATGTGGCCGAGCGGTTGAAGGCACCGGT; expressed or natural sequence)”, the “ampicillin concentration supporting growth (β-lactamase activity)” value in series [1] worked out at 75 µg/mL.
